# In patent US9994552B2, “Compositions useful for treating disorders related to kit” (BLUEPRINT MEDICINES CORPORATION, priority 2013, dated 2018):
# Legend:
# D816V Kit = D816V Kit (Homo sapiens (Human), UniProt P10721, D816V); assay: Kit D816V assay at Km (Caliper electrophoretic mobility shift); type: biochemical; conditions: for IC50: D816V Kit 0.5 nM, 15 uM ATP (Km), 1 uM Srctide, 25 C, 90 minutes, read-out: INH-KITD816V ENZ-KM IC50 (nM) (Num); for times more potent against the D816V mutant than against the wild-type Kit: D816V Kit versus wild-type Kit, enzyme assays at Km
# Protocol: (§1) In order to assess the activity of chemical compounds against the relevant kinase of interest, the Caliper LifeSciences electrophoretic mobility shift technology platform is used. Fluorescently labeled substrate peptide is incubated in the presence of kinase and ATP so that a […] proportion of the peptide is phosphorylated. At the end of the reaction, the mix of phosphorylated (product) and non-phosphorylated (substrate) peptides are passed through the microfluidic system of the Caliper EZ Reader 2, under an applied potential difference. The presence of the phosphate group on the product peptide provides a difference in mass and charge between those of the substrate peptide, resulting in a separation of the substrate and product pools in the sample. As the pools pass a LEDS within the instrument, these pools are detected and resolved as separate peaks. The ratio between these peaks therefore reflects the activity of the chemical matter at that concentration in that well, under those conditions.
# (§2) The reaction was stopped by the addition of 70 ul of Stop buffer (100 mM HEPES pH 7.5, 0.015% Brij 35, 35 mM EDTA and 0.2% of Coating Reagent 3 (Caliper Lifesciences)). The plate was then read on a Caliper EZReader 2 (protocol settings: −1.9 psi, upstream voltage −700, downstream voltage −3000, post sample sip 35 s).
# wild type Kit = wild type Kit (Homo sapiens (Human), UniProt P10721); assay: Kit wild type assay at Km (Caliper electrophoretic mobility shift); type: biochemical; conditions: wild type Kit 2 nM, 400 uM ATP (Km), 1 uM Srctide, 25 C, 90 minutes; read-out: INH-KITWT ENZ-KM IC50 (nM) (Num)
# Protocol: as §1, §2
# wild type Kit, sequence (P10721 26-976): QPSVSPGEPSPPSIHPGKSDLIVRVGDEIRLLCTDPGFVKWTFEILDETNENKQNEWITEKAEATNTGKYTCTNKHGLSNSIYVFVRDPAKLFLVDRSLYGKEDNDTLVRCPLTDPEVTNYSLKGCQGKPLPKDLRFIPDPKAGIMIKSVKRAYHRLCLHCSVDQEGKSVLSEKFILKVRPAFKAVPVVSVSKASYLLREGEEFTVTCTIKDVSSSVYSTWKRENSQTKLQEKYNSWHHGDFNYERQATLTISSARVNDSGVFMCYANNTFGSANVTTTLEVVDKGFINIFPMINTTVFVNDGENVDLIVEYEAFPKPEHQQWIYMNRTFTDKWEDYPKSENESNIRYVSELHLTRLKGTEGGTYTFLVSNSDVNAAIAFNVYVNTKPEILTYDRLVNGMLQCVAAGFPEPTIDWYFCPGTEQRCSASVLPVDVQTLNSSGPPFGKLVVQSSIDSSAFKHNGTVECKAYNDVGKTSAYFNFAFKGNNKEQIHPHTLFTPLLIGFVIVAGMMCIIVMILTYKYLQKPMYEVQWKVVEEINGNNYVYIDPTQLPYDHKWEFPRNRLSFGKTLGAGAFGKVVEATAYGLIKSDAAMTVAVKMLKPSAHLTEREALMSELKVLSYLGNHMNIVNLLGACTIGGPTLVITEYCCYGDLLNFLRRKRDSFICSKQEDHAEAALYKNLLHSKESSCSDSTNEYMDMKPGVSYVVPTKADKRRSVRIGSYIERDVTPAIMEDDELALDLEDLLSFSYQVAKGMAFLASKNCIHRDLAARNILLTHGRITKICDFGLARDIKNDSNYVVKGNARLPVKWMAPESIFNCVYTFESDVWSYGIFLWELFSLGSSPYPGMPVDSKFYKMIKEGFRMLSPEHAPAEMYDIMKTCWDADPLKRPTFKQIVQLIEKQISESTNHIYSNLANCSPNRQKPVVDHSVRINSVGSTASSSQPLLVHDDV
# D816V Kit, sequence (P10721 26-976 D816V): as the sequence (P10721 26-976) above, with D791V counted along it
Compound,IC50 (D816V Kit),IC50 (wild type Kit),times more potent against the D816V mutant than against the wild-type Kit (D816V Kit)
COc1cc2ncnc(N3CCN(c4ncc(O[C@@H](C)c5ccccc5)cn4)CC3)c2cc1OC [Compound 64],10 to 100 nM,> 1000 nM,–
COc1cc2ncnc(N3CCN(c4ncc(OCc5ccccc5C)cn4)CC3)c2cc1OC [Compound 65],10 to 100 nM,> 1000 nM,–
COc1cc2ncnc(N3CCN(c4ncc(OCc5ccccc5)cn4)C(C)C3)c2cc1OC (stereo not shown) [Compound 66],10 to 100 nM,> 1000 nM,–
COc1cc2ncnc(N3CCN(c4ncc(OCc5ccccc5)cn4)C[C@H]3C)c2cc1OC [Compound 67],> 100 nM,> 1000 nM,less than 5 times
COc1cc2ncnc(N3CCN(c4ncc(OCc5ccc(F)cc5)cn4)CC3)c2cc1OC [Compound 69],10 to 100 nM,100 to 1000 nM,–
COc1cc2ncnc(N3CCN(c4ncc(OCc5ccc(C#N)cc5)cn4)CC3)c2cc1OC [Compound 73],> 100 nM,> 1000 nM,at least 100 times
COc1cc2ncnc(N3CCN(c4ncc(N5CCCc6ccccc65)cn4)CC3)c2cc1OC [Compound 74],10 to 100 nM,100 to 1000 nM,–
COc1cc2ncnc(N3CCN(c4ncc(NC(=O)Cc5ccccc5)cn4)CC3)c2cc1OC [Compound 76],10 to 100 nM,100 to 1000 nM,–
COc1ccc(COc2cnc(N3CCN(c4ncnc5cc(OC)c(OC)cc45)CC3)nc2)cc1 [Compound 77],10 to 100 nM,> 1000 nM,at least 100 times
COc1cc2ncnc(N3CCN(c4ncc(S(=O)(=O)c5ccccc5)cn4)CC3)c2cc1OC [Compound 78],10 to 100 nM,> 1000 nM,–
COc1cc2ncnc(N3CCN(c4ncc(Cc5ccc(C(C)(C)C)cc5)cn4)CC3)c2cc1OC [Compound 81],10 to 100 nM,> 1000 nM,–
COc1cc2ncnc(N3CCN(c4ncc(Nc5ccc(C(C)(C)C)cc5)cn4)CC3)c2cc1OC [Compound 82],> 100 nM,> 1000 nM,–
COc1cc2ncnc(N3CCN(c4ncc(OCc5ccc(C(C)(C)C)cc5)cn4)CC3)c2cc1OC [Compound 94],> 100 nM,> 1000 nM,–
COc1cc2ncnc(N3CCN(c4ncc(Cc5cccc(OC(F)(F)F)c5)cn4)CC3)c2cc1OC [Compound 101],10 to 100 nM,100 to 1000 nM,–
"COc1cc2ncnc(N3CCN(c4ncc(OCc5ccc(C(F)(F)F)cc5)cn4)CC3)c2cc1OC [Compound 102, 6,7-dimethoxy-4-(4-(5-((4-(trifluoromethyl)benzyl)oxy)pyrimidin-2-yl)piperazin-1-yl)quinazoline]",> 100 nM,> 1000 nM,–
COc1cc2ncnc(N3CCN(c4ncc(OCc5cc(Cl)cc(Cl)c5)cn4)CC3)c2cc1OC [Compound 103],> 100 nM,> 1000 nM,–
COc1cc2ncnc(N3CCN(c4ncc(Cc5ccccc5)cn4)CC3)c2cc1OCCN1CCNCC1 [Compound 116],1.01 to 10 nM,11 to 100 nM,–
COc1cc2ncnc(N3CCN(c4ncc(Cc5ccccc5)cn4)CC3)c2cc1OC1CCN(CCO)C1 (stereo not shown) [Compound 118],1.01 to 10 nM,11 to 100 nM,–
COc1cc2ncnc(N3CC4CCC(C3)N4c3ncc(Cc4ccccc4)cn3)c2cc1OCC1CNCCO1 (stereo not shown) [Compound 121],< 1 nM,11 to 100 nM,–

# Next, values leading:
IC50 (D816V Kit),IC50 (wild type Kit),times more potent against the D816V mutant than against the wild-type Kit (D816V Kit),Compound
1.01 to 10 nM,100 to 1000 nM,–,COc1cc2ncnc(N3CCN(c4ncc(Nc5ccc(Cl)cc5)cn4)CC3)c2cc1OC [Compound 70]
1.01 to 10 nM,100 to 1000 nM,–,COc1cc2ncnc(N3CCN(c4ncc(Nc5ccc(F)c(F)c5)cn4)CC3)c2cc1OC [Compound 71]
1.01 to 10 nM,100 to 1000 nM,–,COc1cc2ncnc(N3CCN(c4ncc(Cc5cccc(C(N)=O)c5)cn4)CC3)c2cc1OC [Compound 75]
1.01 to 10 nM,11 to 100 nM,–,COc1cc2ncnc(N3CCN(c4ncc(Cc5ccccc5)cn4)CC3)c2cc1OC1CCNC1 (stereo not shown) [Compound 80]
1.01 to 10 nM,100 to 1000 nM,–,COc1cc2ncnc(N3CCN(c4ncc(Cc5ccc(OC(F)F)cc5)cn4)CC3)c2cc1OC [Compound 86]
1.01 to 10 nM,100 to 1000 nM,–,CN1CCC(COc2ccc3ncnc(N4CCN(c5ncc(Cc6ccccc6)cn5)CC4)c3c2)CC1 [Compound 87]
< 1 nM,11 to 100 nM,–,COc1cc2ncnc(N3CCN(c4ncc(Cc5ccccc5)cn4)CC3)c2cc1OCC1CCNC1 (stereo not shown) [Compound 89]
< 1 nM,11 to 100 nM,–,COc1cc2ncnc(N3CCN(c4ncc(Cc5ccccc5)cn4)CC3)c2cc1OCC1CN(C)C1 [Compound 90]
1.01 to 10 nM,11 to 100 nM,–,COc1cc2ncnc(N3CCN(c4ncc(Cc5ccccc5)cn4)CC3)c2cc1OC1CCNCC1 [Compound 91]
1.01 to 10 nM,100 to 1000 nM,–,COc1cc2ncnc(N3CCN(c4ncc(Cc5ccccc5)cn4)CC3)c2cc1OC1CCN(C)C1 (stereo not shown) [Compound 92]
1.01 to 10 nM,11 to 100 nM,–,COc1cc2c(N3CCN(c4ncc(Cc5ccccc5)cn4)CC3)ncnc2cc1OCC1(C)COC1 [Compound 93]
1.01 to 10 nM,11 to 100 nM,–,CN1CCC(COc2ccc3ncnc(N4CCN(c5ncc(Cc6ccccc6)c(N)n5)CC4)c3c2)CC1 [Compound 95]
< 1 nM,11 to 100 nM,–,COc1cc2ncnc(N3CCN(c4ncc(Cc5ccccc5)cn4)CC3)c2cc1OCC1CCN(C)C1 (stereo not shown) [Compound 96]
< 1 nM,11 to 100 nM,–,COc1cc2ncnc(N3CCN(c4ncc(Cc5ccccc5)cn4)CC3)c2cc1OCC1CCCNC1 (stereo not shown) [Compound 97]
1.01 to 10 nM,100 to 1000 nM,–,CN1CCC(COc2ccc3ncnc(N4CCN(c5ncc(Cc6ccccc6)c(=O)[nH]5)CC4)c3c2)CC1 [Compound 100]
< 1 nM,11 to 100 nM,–,COc1cc2ncnc(N3CCN(c4ncc(Cc5ccccc5)cn4)CC3)c2cc1OC[C@H]1CNCCO1 [Compound 104]
1.01 to 10 nM,11 to 100 nM,–,COc1cc2ncnc(N3CCN(c4ncc(Cc5ccccc5)cn4)CC3)c2cc1OC[C@@H]1CNCCO1 [Compound 106]
< 1 nM,11 to 100 nM,–,COc1cc2ncnc(N3CCN(c4ncc(Cc5ccccc5)cn4)CC3)c2cc1OCCN1CCCC1=O [Compound 110]
< 1 nM,11 to 100 nM,–,COc1cc2ncnc(N3CCN(c4ncc(Cc5ccccc5)cn4)CC3)c2cc1OC[C@@H]1CCCN(C)C1 [Compound 113]
< 1 nM,11 to 100 nM,–,COc1cc2ncnc(N3CCN(c4ncc(Cc5ccccc5)cn4)CC3)c2cc1OCC1CCCN(C)C1 (stereo not shown) [Compound 114]
1.01 to 10 nM,11 to 100 nM,–,COc1cc2ncnc(N3CCN(c4ncc(Cc5ccccc5)cn4)CC3)c2cc1OC[C@H]1CCCN(C)C1 [Compound 115]
< 1 nM,11 to 100 nM,–,COc1cc2ncnc(N3CCN(c4ncc(Cc5ccccc5)cn4)CC3)c2cc1OCC1CN(C)CCO1 (stereo not shown) [Compound 117]
< 1 nM,< 10 nM,–,COc1cc2ncnc(N3CCN(c4ncc(Cc5ccccc5)c(=O)[nH]4)CC3)c2cc1OC[C@H]1CNCCO1 [Compound 120]
< 1 nM,< 10 nM,–,CCOc1cc2ncnc(N3CCN(c4ncc(Cc5ccccc5)cn4)CC3)c2cc1OCC1CCN(C)CC1 [Compound 122]
< 1 nM,< 10 nM,–,COc1cc2ncnc(N3CCN(c4ncc(Cc5ccccc5)c(N)n4)CC3)c2cc1OC[C@@H]1CCCN(C)C1 [Compound 124]
